Experimental data published in patent US20100267561A1, “HERBICIDAL PYRIDAZINONE DERIVATIVES” (priority 2007, published 2010).
Like-named read-outs stand apart in the source and are kept apart here.

Experiments:
Type in all cases: in vivo
[1] = tested on: giant foxtail (Setaria faberi); assay: Test A pre-/postemergence plant response; conditions: for pest or weed control at 31 g/ha / pest or weed control at 125 g/ha: Setaria faberi, 240 h, read-out: Plant response rating, Foxtail, Giant
Procedure, shortened: (§1)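 Soil: loam blended with sand. Formulation: non-phytotoxic solvent mixture plus surfactant, applied as preemergence directed soil spray and as postemergence spray. Scoring: visual, 0 no effect to 100 complete control, roughly 10 days post-treatment in greenhouse.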

[2] = tested on: pigweed (Amaranthus retroflexus); assay: Test A pre-/postemergence plant response; conditions: for pest or weed control at 31 g/ha / pest or weed control at 125 g/ha: Amaranthus retroflexus, 240 h, read-out: Plant response rating, Pigweed
Procedure, shortened: as §1

[3] = tested on: barnyardgrass (Echinochloa crus-galli); assay: Test A pre-/postemergence plant response; conditions: for pest or weed control at 31 g/ha / pest or weed control at 125 g/ha: Echinochloa crus-galli, 240 h, read-out: Plant response rating, Barnyardgrass
Procedure, shortened: as §1

[4] = tested on: corn (Zea mays); assay: Test A pre-/postemergence plant response; conditions: for Corn plant response rating (crop injury, 0 = no effect, 100 = complete kill) at 31 g/ha / Corn plant response rating (crop injury, 0 = no effect, 100 = complete kill) at 125 g/ha: Zea mays, 240 h
Procedure, shortened: as §1

[5] = tested on: large crabgrass (Digitaria sanguinalis); assay: Test A pre-/postemergence plant response; conditions: for pest or weed control at 31 g/ha / pest or weed control at 125 g/ha: Digitaria sanguinalis, 240 h, read-out: Plant response rating, Crabgrass, Large
Procedure, shortened: as §1

[6] = tested on: wheat (Triticum aestivum); assay: Test A pre-/postemergence plant response; conditions: for plant injury at 31 g/ha / plant injury at 125 g/ha: Triticum aestivum, 240 h, read-out: Plant response rating, Wheat
Procedure, shortened: as §1

[7] = tested on: chickweed (Stellaria media); assay: Test B postemergence plant response; conditions: for Chickweed plant response rating: postemergence, 0-100 scale; for Plant response rating, Chickweed: Postemergence
Procedure, shortened: (§2)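 Emerged plants, 1- to 4-leaf stage, treated; greenhouse 13–15 d; eye-scored vs untreated controls (0–100 scale).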

[8] = tested on: winter barley (Hordeum vulgare); assay: Test B postemergence plant response; conditions: for Barley plant response rating: postemergence; for Plant response rating, Barley: Postemergence, scale 0 to 100, 0 no effect, 100 complete control
Procedure, shortened: as §2

[9] = tested on: canarygrass (Phalaris minor); assay: Test B postemergence plant response; conditions: for Canarygrass plant response rating: postemergence, 0-100 scale; for Plant response rating, Canarygrass: Postemergence
Procedure, shortened: as §2

[10] = tested on: windgrass (Apera spica-venti); assay: Test B postemergence plant response; conditions: for Windgrass plant response rating: postemergence, 0-100 scale; for Plant response rating, Windgrass: Postemergence
Procedure, shortened: as §2

[11] = post-emergence, Postemergence, 31 g ai/ha, 0 to 100 scale (0 no effect, 100 complete control)
[12] = post-emergence, Postemergence, 125 g ai/ha, 0 to 100 scale, 0 no effect, 100 complete control
[13] = pre-emergence, Preemergence, 31 g ai/ha, 0 to 100 scale, 0 is no effect, 100 is complete control
[14] = pre-emergence, Preemergence, 125 g ai/ha, 0 to 100 scale (0 no effect, 100 complete control)
[15] = 62 g ai/ha, scale 0 to 100, 0 no effect, 100 complete control
[16] = Postemergence, 31 g ai/ha, 0 to 100 scale, 0 no effect, 100 complete control
[17] = Postemergence, 125 g ai/ha, 0 to 100 scale, 0 no effect, 100 complete control
[18] = Preemergence, 31 g ai/ha, 0 to 100 scale, 0 is no effect, 100 is complete control
[19] = Preemergence, 125 g ai/ha, 0 to 100 scale (0 no effect, 100 complete control)

Cc1nn(C)c(=O)c(-c2nc(-c3ccc(Cl)cc3)sc2C)c1O [Compound 79, 4-[2-(4-chlorophenyl)-5-methyl-4-thiazolyl]-5-hydroxy-2,6-dimethyl-3(2H)-pyridazinone]
pest or weed control at 31 g/ha [1, 11]: 10%
pest or weed control at 125 g/ha [1, 12]: 70%
pest or weed control at 31 g/ha [1, 13]: 10%
pest or weed control at 125 g/ha [1, 14]: 100%
pest or weed control at 31 g/ha [2, 11]: 0%
pest or weed control at 125 g/ha [2, 12]: 0%
pest or weed control at 31 g/ha [2, 13]: 0%
pest or weed control at 125 g/ha [2, 14]: 0%
pest or weed control at 31 g/ha [3, 11]: 0%
pest or weed control at 125 g/ha [3, 12]: 50%
pest or weed control at 31 g/ha [3, 13]: 0%
pest or weed control at 125 g/ha [3, 14]: 100%
Corn plant response rating (crop injury, 0 = no effect, 100 = complete kill) at 31 g/ha [4, 11]: 0%
Corn plant response rating (crop injury, 0 = no effect, 100 = complete kill) at 125 g/ha [4, 12]: 30%
Corn plant response rating (crop injury, 0 = no effect, 100 = complete kill) at 31 g/ha [4, 13]: 0%
Corn plant response rating (crop injury, 0 = no effect, 100 = complete kill) at 125 g/ha [4, 14]: 20%
pest or weed control at 31 g/ha [5, 11]: 30%
pest or weed control at 125 g/ha [5, 12]: 50%
pest or weed control at 31 g/ha [5, 13]: 10%
pest or weed control at 125 g/ha [5, 14]: 100%
plant injury at 31 g/ha [6, 11]: 0%
plant injury at 125 g/ha [6, 12]: 50%
plant injury at 31 g/ha [6, 13]: 0%
plant injury at 125 g/ha [6, 14]: 60%
Chickweed plant response rating ([7]; 8 g ai/ha): 0
Plant response rating, Chickweed ([7]; 16 g ai/ha, scale 0 to 100): 0
Plant response rating, Chickweed ([7]; 31 g ai/ha, scale 0 to 100): 0
Plant response rating, Chickweed [7, 15]: 0
Barley plant response rating ([8]; 8 g ai/ha, 0-100 scale): 0
Plant response rating, Barley ([8]; 16 g ai/ha): 10
Plant response rating, Barley ([8]; 31 g ai/ha): 30
Plant response rating, Barley ([8]; 62 g ai/ha): 40
Canarygrass plant response rating ([9]; 8 g ai/ha): 10
Plant response rating, Canarygrass ([9]; 16 g ai/ha, scale 0 to 100): 55
Plant response rating, Canarygrass ([9]; 31 g ai/ha, scale 0 to 100): 85
Plant response rating, Canarygrass [9, 15]: 95
Windgrass plant response rating ([10]; 8 g ai/ha): 0
Windgrass plant response rating ([10]; 16 g ai/ha): 50
Plant response rating, Windgrass ([10]; 31 g ai/ha, scale 0 to 100): 50
Plant response rating, Windgrass [10, 15]: 70

COc1nn(C)c(=O)c(-n2nc(-c3ccc(Br)cc3)cc2C)c1O [Compound 82]
Plant response rating, Foxtail, Giant [1, 16]: 100
Plant response rating, Foxtail, Giant [1, 17]: 100
Plant response rating, Foxtail, Giant [1, 18]: 90
Plant response rating, Foxtail, Giant [1, 19]: 100
Plant response rating, Pigweed [2, 16]: 0
Plant response rating, Pigweed [2, 17]: 0
Plant response rating, Pigweed [2, 18]: 0
Plant response rating, Pigweed [2, 19]: 0
Plant response rating, Barnyardgrass [3, 16]: 100
Plant response rating, Barnyardgrass [3, 17]: 100
Plant response rating, Barnyardgrass [3, 18]: 50
Plant response rating, Barnyardgrass [3, 19]: 100
Plant response rating, Corn [4, 16]: 80
Plant response rating, Corn [4, 17]: 100
Plant response rating, Corn [4, 18]: 40
Plant response rating, Corn [4, 19]: 50
Plant response rating, Crabgrass, Large [5, 16]: 100
Plant response rating, Crabgrass, Large [5, 17]: 100
Plant response rating, Crabgrass, Large [5, 18]: 50
Plant response rating, Crabgrass, Large [5, 19]: 100
Plant response rating, Wheat [6, 16]: 90
Plant response rating, Wheat [6, 17]: 100
Plant response rating, Wheat [6, 18]: 50
Plant response rating, Wheat [6, 19]: 90
Chickweed plant response rating ([7]; 8 g ai/ha): 0
Chickweed plant response rating ([7]; 16 g ai/ha): 0
Plant response rating, Chickweed ([7]; 31 g ai/ha, scale 0 to 100): 0
Plant response rating, Chickweed [7, 15]: 90
Barley plant response rating ([8]; 8 g ai/ha, 0-100 scale): 90
Barley plant response rating ([8]; 16 g ai/ha, 0-100 scale (0 no effect, 100 complete control)): 98
Plant response rating, Barley ([8]; 31 g ai/ha): 100
Plant response rating, Barley ([8]; 62 g ai/ha): 100
Canarygrass plant response rating ([9]; 8 g ai/ha): 80
Canarygrass plant response rating ([9]; 16 g ai/ha): 95
Plant response rating, Canarygrass ([9]; 31 g ai/ha, scale 0 to 100): 100
Plant response rating, Canarygrass [9, 15]: 100
Windgrass plant response rating ([10]; 8 g ai/ha): 70
Windgrass plant response rating ([10]; 16 g ai/ha): 100
Plant response rating, Windgrass ([10]; 31 g ai/ha, scale 0 to 100): 100
Plant response rating, Windgrass [10, 15]: 100
